According to ChEMBL document CHEMBL1131414, “Dual D2-receptor and beta2-adrenoceptor agonists for the treatment of airway diseases. 1. Discovery and biological evaluation of some 7-(2-aminoethyl)-4-hydroxybenzothiazol-2(3H)-one analogues” (J Med Chem, 1998):
The source made the active and inactive calls. The calls are words filed in the database; no cut-off is given here.

Experiments:
[1] = biological target: Beta-2 adrenergic receptor (Cavia porcellus) (UniProt Q8K4Z4); test: Tested in vitro for binding activity to Beta-2 adrenergic receptor in guinea pig trachea (GPT).; assay type: tissue-based
Beta-2 adrenergic receptor (Cavia porcellus), sequence (Q8K4Z4 whole entry, looked up): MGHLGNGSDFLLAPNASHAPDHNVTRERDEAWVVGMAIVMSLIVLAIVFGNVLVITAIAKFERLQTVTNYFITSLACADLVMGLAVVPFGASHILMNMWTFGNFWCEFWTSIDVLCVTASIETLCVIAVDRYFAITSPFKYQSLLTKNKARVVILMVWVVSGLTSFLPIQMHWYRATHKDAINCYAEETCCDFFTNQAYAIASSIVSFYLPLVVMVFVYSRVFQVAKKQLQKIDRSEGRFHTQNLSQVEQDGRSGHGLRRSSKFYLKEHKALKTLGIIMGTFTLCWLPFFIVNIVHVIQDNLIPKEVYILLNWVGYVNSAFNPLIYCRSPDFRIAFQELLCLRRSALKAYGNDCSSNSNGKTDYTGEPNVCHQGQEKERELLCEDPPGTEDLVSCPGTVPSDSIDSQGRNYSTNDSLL

[2] = biological target: D(2) dopamine receptor (Bos taurus) (UniProt P20288); test: Tested in vitro for binding activity to Dopamine receptor D2 in bovine pituitary membranes (D2-LB); assay type: cell membranes
D(2) dopamine receptor (Bos taurus), sequence (P20288 whole entry): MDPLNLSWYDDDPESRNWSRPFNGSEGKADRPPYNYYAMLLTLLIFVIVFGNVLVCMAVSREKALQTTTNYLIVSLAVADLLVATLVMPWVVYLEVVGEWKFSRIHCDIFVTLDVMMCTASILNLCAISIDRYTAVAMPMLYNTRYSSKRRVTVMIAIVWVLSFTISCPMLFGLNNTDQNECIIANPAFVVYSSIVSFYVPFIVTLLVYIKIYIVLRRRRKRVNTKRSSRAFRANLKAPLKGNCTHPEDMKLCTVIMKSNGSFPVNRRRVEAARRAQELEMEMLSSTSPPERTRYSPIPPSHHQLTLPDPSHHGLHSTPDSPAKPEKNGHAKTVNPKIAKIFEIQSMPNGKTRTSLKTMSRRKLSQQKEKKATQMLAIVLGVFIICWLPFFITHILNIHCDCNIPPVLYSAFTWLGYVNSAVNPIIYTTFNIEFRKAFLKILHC

[3] = biological target: Adrenergic receptor alpha-1 (Homo sapiens) (UniProt P35348+P25100+P35368); test: Tested in vitro for binding activity to Alpha-1 adrenergic receptor in field stimulated rabbit ear artery (REA).; details: Oryctolagus cuniculus; target entry is the homologue from another species
[4] = biological target: D(2) dopamine receptor (Homo sapiens) (UniProt P14416); test: Tested in vitro for binding activity to Dopamine receptor D2 in field stimulated rabbit ear artery (D2-REA); f denotes 'Data compromised by high […] agonist activity'; details: Oryctolagus cuniculus; target entry is the homologue from another species
D(2) dopamine receptor (Homo sapiens), sequence (P14416 whole entry): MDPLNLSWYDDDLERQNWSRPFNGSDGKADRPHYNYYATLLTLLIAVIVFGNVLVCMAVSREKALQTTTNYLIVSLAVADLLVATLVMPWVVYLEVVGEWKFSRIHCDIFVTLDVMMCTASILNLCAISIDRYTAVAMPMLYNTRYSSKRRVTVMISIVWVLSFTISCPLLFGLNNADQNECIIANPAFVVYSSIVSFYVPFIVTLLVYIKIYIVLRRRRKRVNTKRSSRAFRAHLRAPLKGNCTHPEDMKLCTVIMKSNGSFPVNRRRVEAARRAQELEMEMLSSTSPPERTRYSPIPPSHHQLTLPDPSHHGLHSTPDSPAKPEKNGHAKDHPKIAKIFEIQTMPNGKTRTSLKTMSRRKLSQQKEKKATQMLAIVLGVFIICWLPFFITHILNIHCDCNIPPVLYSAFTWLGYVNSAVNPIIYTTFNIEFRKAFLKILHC

[5] = biological target: D(2) dopamine receptor (Homo sapiens) (UniProt P14416); test: Tested in vitro for binding activity to Dopamine receptor D2 in field stimulated rabbit ear artery (D2-REA).; details: Oryctolagus cuniculus; target entry is the homologue from another species

Oc1nc2c(O)ccc(CCNCCCCCCNCCc3ccccc3)c2s1
p[A]50 [1]: 7.19 | pKH [2]: 8.99 | pKL [2]: 6.44 | p[A]50 [3]: 6.81 | p[A]50 [4]: inactive

O=c1[nH]c2c(O)ccc(CCNCCS(=O)(=O)CCCOCCc3ccccc3)c2s1
p[A]50 [1]: 7.95 | p[A]50 [5]: 8.94 | pKH [2]: 8.61 | pKL [2]: 6.48 | p[A]50 [3]: 6.08

OCc1cc(C(O)CNCCCCCCOCCCCc2ccccc2)ccc1O (configuration not stated)
p[A]50 [1]: 7.52 | p[A]50 [3]: 5.49

CCCN(CCC)CCc1ccc(O)c2nc(O)sc12
p[A]50 [1]: < 5 | p[A]50 [5]: 9.6 | pKH [2]: 9.34 | pKL [2]: 6.85 | p[A]50 [3]: 6.03

Oc1nc2c(O)ccc(CCNCCCCCCOCCCCc3ccccc3)c2s1
p[A]50 [1]: 7.33 | pKH [2]: 9.33 | pKL [2]: 7.11 | p[A]50 [3]: 6.85 | p[A]50 [4]: inactive

Oc1nc2c(O)ccc(CCNCCCCCCOCCc3ccccc3)c2s1
p[A]50 [1]: 7.89 | pKH [2]: 9.01 | pKL [2]: 6.93 | p[A]50 [3]: 7.56 | p[A]50 [4]: inactive
